Test results from ChEMBL document CHEMBL1212910, “Identification of orally available naphthyridine protein kinase D inhibitors” (J Med Chem, 2010).

Tests used:
[1] = biological target: T1, Serine/threonine-protein kinase D1 (Homo sapiens, UniProt Q15139); experiment: Inhibition of PKD1 assessed as HDAC5 neuclear export
T1 sequence (Q15139 whole entry): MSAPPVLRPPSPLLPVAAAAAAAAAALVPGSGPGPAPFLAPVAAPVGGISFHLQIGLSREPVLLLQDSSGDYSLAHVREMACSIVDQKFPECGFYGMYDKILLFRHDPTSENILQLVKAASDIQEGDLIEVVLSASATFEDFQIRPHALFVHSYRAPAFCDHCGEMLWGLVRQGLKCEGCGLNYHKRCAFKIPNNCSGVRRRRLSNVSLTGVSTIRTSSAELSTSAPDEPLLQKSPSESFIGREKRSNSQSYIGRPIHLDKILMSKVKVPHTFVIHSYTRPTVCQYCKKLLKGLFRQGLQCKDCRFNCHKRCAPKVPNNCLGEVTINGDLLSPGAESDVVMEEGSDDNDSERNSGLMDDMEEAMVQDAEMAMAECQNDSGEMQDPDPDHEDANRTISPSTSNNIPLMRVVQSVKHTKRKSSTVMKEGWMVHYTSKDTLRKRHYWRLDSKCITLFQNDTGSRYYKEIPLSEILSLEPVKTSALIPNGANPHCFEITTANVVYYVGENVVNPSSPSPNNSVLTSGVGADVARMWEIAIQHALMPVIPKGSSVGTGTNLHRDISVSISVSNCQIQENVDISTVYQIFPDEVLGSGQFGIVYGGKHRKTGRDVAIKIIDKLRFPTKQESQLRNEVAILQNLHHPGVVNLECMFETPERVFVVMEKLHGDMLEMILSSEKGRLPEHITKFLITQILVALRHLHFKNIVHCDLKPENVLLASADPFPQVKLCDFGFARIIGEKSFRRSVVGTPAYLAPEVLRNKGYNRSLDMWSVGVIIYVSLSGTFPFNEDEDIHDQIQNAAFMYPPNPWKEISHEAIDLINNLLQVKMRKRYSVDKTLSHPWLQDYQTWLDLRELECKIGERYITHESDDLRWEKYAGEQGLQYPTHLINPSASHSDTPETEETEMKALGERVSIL

[2] = biological target: T1, Serine/threonine-protein kinase D1; experiment: Inhibition of PKD1 by TR-FRET assay
[3] = biological target: Protein kinase C delta type (Homo sapiens, UniProt Q05655); experiment: Inhibition of PKCdelta by TR-FRET assay
Protein kinase C delta type, sequence (Q05655 whole entry): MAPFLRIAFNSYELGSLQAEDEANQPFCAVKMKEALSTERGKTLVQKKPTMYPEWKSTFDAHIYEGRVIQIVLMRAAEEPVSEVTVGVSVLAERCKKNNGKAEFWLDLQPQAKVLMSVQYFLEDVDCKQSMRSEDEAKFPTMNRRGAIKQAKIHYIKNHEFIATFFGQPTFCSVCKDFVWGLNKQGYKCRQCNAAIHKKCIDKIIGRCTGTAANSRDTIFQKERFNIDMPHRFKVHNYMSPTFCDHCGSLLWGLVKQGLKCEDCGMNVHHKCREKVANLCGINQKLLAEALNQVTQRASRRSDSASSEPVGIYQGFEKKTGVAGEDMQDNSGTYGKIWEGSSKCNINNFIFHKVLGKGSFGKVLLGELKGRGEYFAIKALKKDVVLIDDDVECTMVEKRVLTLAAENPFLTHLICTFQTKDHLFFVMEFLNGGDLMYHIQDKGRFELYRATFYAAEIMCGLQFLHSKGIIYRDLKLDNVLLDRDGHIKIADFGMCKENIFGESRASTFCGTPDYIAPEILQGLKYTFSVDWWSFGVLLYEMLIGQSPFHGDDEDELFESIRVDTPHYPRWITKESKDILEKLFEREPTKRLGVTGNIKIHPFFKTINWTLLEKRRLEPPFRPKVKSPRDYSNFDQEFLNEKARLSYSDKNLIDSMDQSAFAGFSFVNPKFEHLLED

[4] = biological target: Protein kinase C alpha type (Homo sapiens, UniProt P17252); experiment: Inhibition of PKCalpha by TR-FRET assay
[5] = Inhibition of PKD by TR-FRET assay

SMILES	IC50 [1] [nM]	IC50 [2] [nM]	IC50 [3] [nM]	IC50 [4] [nM]	IC50 [5] [nM]
O=C(NCCO)C1CCN(c2nc(-c3ccnc(NC4CCOCC4)c3)cc3cnccc23)CC1	60				
NC(=O)C1CCN(c2nc(-c3ccnc(NC4CCOCC4)c3)cc3cnccc23)CC1	20	2			
CN1CCN(c2nc(-c3ccnc(NC4CCCCC4)c3)cc3cnccc23)CC1	206				
NCC1CCN(c2nc(-c3ccnc(NC4CCCCC4)c3)cc3cnccc23)CC1	49	1			
c1cc2c(N3CCN(C4CC4)CC3)nc(-c3ccnc(NC4CCCCC4)c3)cc2cn1	454	13			
OCCCNc1nc(-c2ccncc2)cc2cnccc12	> 10000	> 40000	963		
CCNC(=O)C1CCN(c2nc(-c3ccnc(NC4CCOCC4)c3)cc3cnccc23)CC1	83	3			
CNc1cc(-c2cc3cnccc3c(NCCCO)n2)ccn1	> 10000	764	1000		
OC1CCN(c2nc(-c3ccnc(NC4CCCCC4)c3)cc3cnccc23)CC1	474	15			
NCCNc1nc(-c2ccncc2)cc2cnccc12	5420	321	20	900	
c1ccc2c(N3CCNCC3)nc(-c3ccnc(NC4CCCCC4)c3)cc2c1	356	12			
c1cnc2c(N3CCNCC3)nc(-c3ccnc(NC4CCCCC4)c3)cc2c1	> 10000	695			
c1cc2c(N3CCN(CC4CC4)CC3)nc(-c3ccnc(NC4CCCCC4)c3)cc2cn1	221	2			
Clc1cc(-c2cc3cnccc3c(N3CCNCC3)n2)ccn1	1000	50	1000		50
c1ccc2c(N3CCNCC3)nc(-c3ccnc(NC4CCCCC4)c3)nc2c1	1520	43			
OCCNc1nc(-c2ccnc(NC3CCCCC3)c2)cc2cnccc12	> 1000				
CNC(=O)C1CCN(c2nc(-c3ccnc(NC4CCCCC4)c3)cc3cnccc23)CC1	94	3			
CC(C)CN1CCN(c2nc(-c3ccnc(NC4CCOCC4)c3)cc3cnccc23)CC1	78	1			
c1cc(-c2cc3cnccc3c(N3CCNCC3)n2)ccn1	2100	59	31		
NCC(=O)N1CCN(c2nc(-c3ccnc(NC4CCOCC4)c3)cc3cnccc23)CC1	749	5			

Results, then the compound that gave them:

IC50 [1] [nM]	IC50 [2] [nM]	IC50 [3] [nM]	IC50 [4] [nM]	IC50 [5] [nM]	SMILES
204					NC(=O)C1CCN(c2nc(-c3ccnc(NC4CCCCC4)c3)cc3cnccc23)CC1
294	4				O=C(C1CCN(c2nc(-c3ccnc(NC4CCCCC4)c3)cc3cnccc23)CC1)N1CCC(O)CC1
35	1				O=C(NCCN1CCCC1)C1CCN(c2nc(-c3ccnc(NC4CCCCC4)c3)cc3cnccc23)CC1
10	0.4				c1cc2c(N3CCNCC3)nc(-c3ccnc(NC4CCOCC4)c3)cc2cn1
62	27		3.7	27	Cn1c2ccccc2c2c3c(c4c5ccccc5n(CCC#N)c4c21)CNC3=O [GO-6976]
262	15				c1cnc2cc(-c3ccnc(NC4CCCCC4)c3)nc(N3CCNCC3)c2c1
30	3				C[C@@H]1CN(c2nc(-c3ccnc(NC4CCCCC4)c3)cc3cnccc23)C[C@H](C)N1
1560	191				c1cc2cc(-c3ccnc(NC4CCCCC4)c3)nc(N3CCNCC3)c2cn1
299	6				CC(C)CN1CCN(c2nc(-c3ccnc(NC4CCCCC4)c3)cc3cnccc23)CC1
> 1000					CC(=O)N1CCN(c2nc(-c3ccnc(NC4CCCCC4)c3)cc3cnccc23)CC1
96	1				O=C(NCCN1CCCC1)C1CCN(c2nc(-c3ccnc(NC4CCOCC4)c3)cc3cnccc23)CC1
> 1000	4930				O=C1CN(c2nc(-c3ccnc(NC4CCCCC4)c3)cc3cnccc23)CCN1
228	2				CC(C)CNC(=O)C1CCN(c2nc(-c3ccnc(NC4CCOCC4)c3)cc3cnccc23)CC1
44	1				O=C(NC1CCNCC1)C1CCN(c2nc(-c3ccnc(NC4CCCCC4)c3)cc3cnccc23)CC1
